In patent publication US6710049B2, “Azole compounds as anti-fungal agents” (Ranbaxy Laboratories Limited, priority 2000, dated 2004):

Experiments:
P variotii 22319 [1] = experiment: MFC determination (subculture on Sabouraud Dextrose Agar); assay type: cell-based, Paecillomyces variotii
Description: (§1) The in-vitro evaluation of the antifungal activity of the compounds can be performed by determining the minimum inhibitory concentration (MIC) as shown in Table 1 which is the concentration of the test compound in Rosewell Park Memorial Institute (RPMI) 1640 liquid medium buffered with 3-(Morpholino)propanesulphonic acid (MOPS) to pH 7, at which there is significant inhibition of the particular fungi. In practice the National Committee for Clinical Laboratory Standard (NCCLS) M27A document for Candida and Cryptococcus and M38P for Aspergillus was used to determine the MIC against yeast and filamentous fungi with suitable modifications for dermatophytes to other filamentous fungi. Three quality control strains were included each time the MIC were determined and readings recorded only when the Quality Control results fell into the acceptable range. After MIC results had been recorded, 100 μl from each of the well showing no growth was spread over Sabouraud Dextrose Agar (SDA) to determine the minimum fungicidal concentration (MFC) as shown in Table 2.

C albicans Y01.19 = experiment: MIC determination (NCCLS broth method); assay type: cell-based, Candida albicans
Description: as §1

C albicans A-26 = experiment: MIC determination (NCCLS broth method); assay type: cell-based, Candida albicans
Description: as §1

P variotii 22319 [2] = experiment: MIC determination (NCCLS broth method); assay type: cell-based, Paecillomyces variotii
Description: as §1

H capsulatum = experiment: MIC determination (NCCLS broth method); assay type: cell-based
Description: as §1

Rhizopus 1052 = experiment: MIC determination (NCCLS broth method); assay type: cell-based
Description: as §1

Penicillium I - 1049 = experiment: MIC determination (NCCLS broth method); assay type: cell-based
Description: as §1

Penicillium 1641 = experiment: MIC determination (NCCLS broth method); assay type: cell-based
Description: as §1

Fusarium 1050 = experiment: MIC determination (NCCLS broth method); assay type: cell-based
Description: as §1

Penicillium 2548 = experiment: MIC determination (NCCLS broth method); assay type: cell-based
Description: as §1

Penicillium 191 = experiment: MIC determination (NCCLS broth method); assay type: cell-based
Description: as §1

Rhizopus (Ceylon) = experiment: MIC determination (NCCLS broth method); assay type: cell-based
Description: as §1

C krusei 766.1 = experiment: MIC determination (NCCLS broth method); assay type: cell-based
Description: as §1

C krusei 6258 = experiment: MIC determination (NCCLS broth method); assay type: cell-based
Description: as §1

A flavus P2 - 1045 = experiment: MIC determination (NCCLS broth method); assay type: cell-based
Description: as §1

Penicillium H - 1048 = experiment: MIC determination (NCCLS broth method); assay type: cell-based
Description: as §1

Fusarium 2960C = experiment: MIC determination (NCCLS broth method); assay type: cell-based
Description: as §1

C glabrata 90030 = experiment: MIC determination (NCCLS broth method); assay type: cell-based
Description: as §1

Alternaria 1051 = experiment: MIC determination (NCCLS broth method); assay type: cell-based
Description: as §1

A flavus E4 - 1042 = experiment: MIC determination (NCCLS broth method); assay type: cell-based
Description: as §1

A flavus E3 - 1044 = experiment: MIC determination (NCCLS broth method); assay type: cell-based
Description: as §1

A niger P1 - 1046 = experiment: MIC determination (NCCLS broth method); assay type: cell-based
Description: as §1

Penicillium 3162 = experiment: MIC determination (NCCLS broth method); assay type: cell-based
Description: as §1

A niger E5 - 1047 = experiment: MIC determination (NCCLS broth method); assay type: cell-based
Description: as §1

C tropicalis 750 = experiment: MIC determination (NCCLS broth method); assay type: cell-based
Description: as §1

Fusarium 1827C = experiment: MIC determination (NCCLS broth method); assay type: cell-based
Description: as §1

A flavus P3 - 1041 = experiment: MIC determination (NCCLS broth method); assay type: cell-based
Description: as §1

Mucor (Ceylon) = experiment: MIC determination (NCCLS broth method); assay type: cell-based
Description: as §1

A flavus E2 - 1043 = experiment: MIC determination (NCCLS broth method); assay type: cell-based
Description: as §1

C parapsilosis 22019 = experiment: MIC determination (NCCLS broth method); assay type: cell-based
Description: as §1

A fumigatus SI-1 - 1019 [3] = experiment: MFC determination (subculture on Sabouraud Dextrose Agar); assay type: cell-based, Aspergillus fumigatus
Description: as §1

A fumigatus 1008 [4] = experiment: as above; assay type: cell-based, Aspergillus fumigatus
Description: as §1

Penicilliuim 2306 = experiment: MIC determination (NCCLS broth method); assay type: cell-based, Penicillium
Description: as §1

A fumigatus SI-1 - 1019 [5] = experiment: MIC determination (NCCLS broth method); assay type: cell-based, Aspergillus fumigatus
Description: as §1

A fumigatus J - 1032 = experiment: MIC determination (NCCLS broth method); assay type: cell-based, Aspergillus fumigatus
Description: as §1

A fumigatus L - 1034 = experiment: MIC determination (NCCLS broth method); assay type: cell-based, Aspergillus fumigatus
Description: as §1

A fumigatus I - 1011 = experiment: MIC determination (NCCLS broth method); assay type: cell-based, Aspergillus fumigatus
Description: as §1

A fumigatus K - 1033 = experiment: MIC determination (NCCLS broth method); assay type: cell-based, Aspergillus fumigatus
Description: as §1

A fumigatus II - 1012 = experiment: MIC determination (NCCLS broth method); assay type: cell-based, Aspergillus fumigatus
Description: as §1

A fumigatus 1008 [6] = experiment: MIC determination (NCCLS broth method); assay type: cell-based, Aspergillus fumigatus
Description: as §1

A fumigatus PGI - 1023 = experiment: MIC determination (NCCLS broth method); assay type: cell-based, Aspergillus fumigatus
Description: as §1

[7] = read-out: Minimum Inhibitory Concentration (MIC)

C[C@@H](n1ncn(-c2ccc(N3CCN(c4ccc(Cl)cc4)CC3)cc2)c1=S)[C@](O)(Cn1cncn1)c1ccc(F)cc1F [Compound No. 1, 2-{[1R,2R]-2-(2,4-Difluorophenyl)-2-hydroxy-1-methyl-3-(1H-1,2,4-triazole-1-yl)propyl}-4-{4-[4-(4-chlorophenyl)-1-piperizinyl]phenyl}-3-(2H,4H)-1,2,4-thiotriazolone]
0.004 µg/mL: Minimum Inhibitory Concentration (MIC) (P variotii 22319 [2]) | Minimum Inhibitory Concentration (MIC) (Mucor (Ceylon)) | Minimum Inhibitory Concentration (MIC) (C parapsilosis 22019)
0.016 µg/mL: Minimum Inhibitory Concentration (MIC) (C albicans A-26) | Minimum Inhibitory Concentration (MIC) (A flavus P2 - 1045) | Minimum Inhibitory Concentration (MIC) (A flavus E3 - 1044) | Minimum Inhibitory Concentration (MIC) (Penicilliuim 2306) | Minimum Inhibitory Concentration (MIC) (A fumigatus SI-1 - 1019 [5]) | Minimum Inhibitory Concentration (MIC) (A fumigatus I - 1011) | Minimum Inhibitory Concentration (MIC) (A fumigatus 1008 [6]) | Minimum Inhibitory Concentration (MIC) (A fumigatus PGI - 1023)
1 µg/mL: Minimum Inhibitory Concentration (MIC) (Fusarium 1050)
0.06 µg/mL: Minimum Fungicidal Concentration (MFC) (P variotii 22319 [1]) | Minimum Inhibitory Concentration (MIC) (H capsulatum) | Minimum Inhibitory Concentration (MIC) (Penicillium 191) | Minimum Inhibitory Concentration (MIC) (C krusei 6258) | Minimum Inhibitory Concentration (MIC) (C glabrata 90030)
0.0005 µg/mL: Minimum Inhibitory Concentration (MIC) (Rhizopus 1052)
2 µg/mL: Minimum Inhibitory Concentration (MIC) (Fusarium 2960C) | Minimum Inhibitory Concentration (MIC) (Fusarium 1827C)
0.008 µg/mL: Minimum Inhibitory Concentration (MIC) (A flavus E4 - 1042) | Minimum Inhibitory Concentration (MIC) (C tropicalis 750) | Minimum Inhibitory Concentration (MIC) (A flavus P3 - 1041) | Minimum Inhibitory Concentration (MIC) (A flavus E2 - 1043) | Minimum Inhibitory Concentration (MIC) (A fumigatus J - 1032) | Minimum Inhibitory Concentration (MIC) (A fumigatus L - 1034) | Minimum Inhibitory Concentration (MIC) (A fumigatus K - 1033) | Minimum Inhibitory Concentration (MIC) (A fumigatus II - 1012)
0.25 µg/mL: Minimum Inhibitory Concentration (MIC) (Penicillium 1641)
0.03 µg/mL: Minimum Inhibitory Concentration (MIC) (C albicans Y01.19) | Minimum Inhibitory Concentration (MIC) (Penicillium I - 1049) | Minimum Inhibitory Concentration (MIC) (Penicillium H - 1048) | Minimum Inhibitory Concentration (MIC) (Alternaria 1051) | Minimum Inhibitory Concentration (MIC) (A niger P1 - 1046) | Minimum Inhibitory Concentration (MIC) (Penicillium 3162) | Minimum Inhibitory Concentration (MIC) (A niger E5 - 1047) | Minimum Fungicidal Concentration (MFC) (A fumigatus SI-1 - 1019 [3]) | Minimum Fungicidal Concentration (MFC) (A fumigatus 1008 [4])
0.125 µg/mL: Minimum Inhibitory Concentration (MIC) (Penicillium 2548) | Minimum Inhibitory Concentration (MIC) (Rhizopus (Ceylon)) | Minimum Inhibitory Concentration (MIC) (C krusei 766.1)

OC(Cn1cncn1)(Cn1cncn1)c1ccc(F)cc1F [Fluconazole]
128 µg/mL: MIC (Penicillium 2548; [7]) | MIC (C krusei 766.1; [7]) | MIC (A niger P1 - 1046; [7])
0.5 µg/mL: MIC (C albicans A-26; Candida albicans, A26, read-out: Minimum Inhibitory Concentration (MIC)) | MIC (C tropicalis 750; [7])
> 128 µg/mL: MFC (P variotii 22319 [1]; read-out: Minimum Fungicidal Concentration (MFC)) | MIC (P variotii 22319 [2]; [7]) | MIC (Rhizopus 1052; [7]) | MIC (Penicillium I - 1049; I1049, read-out: Minimum Inhibitory Concentration (MIC)) | MIC (Fusarium 1050; [7]) | MIC (Rhizopus (Ceylon); [7]) | MIC (A flavus P2 - 1045; [7]) | MIC (Penicillium H - 1048; H1048, read-out: Minimum Inhibitory Concentration (MIC)) | MIC (Fusarium 2960C; [7]) | MIC (Alternaria 1051; [7]) | MIC (A flavus E4 - 1042; [7]) | MIC (A flavus E3 - 1044; [7]) | MIC (Penicillium 3162; [7]) | MIC (A niger E5 - 1047; [7]) | MIC (Fusarium 1827C; [7]) | MIC (A flavus P3 - 1041; [7]) | MIC (Mucor (Ceylon); [7]) | MIC (A flavus E2 - 1043; [7]) | MFC (A fumigatus SI-1 - 1019 [3]; Aspergillus fumigatus, SI11019, read-out: Minimum Fungicidal Concentration (MFC)) | MFC (A fumigatus 1008 [4]; Aspergillus fumigatus, read-out: Minimum Fungicidal Concentration (MFC)) | MIC (Penicilliuim 2306; Penicillium, read-out: Minimum Inhibitory Concentration (MIC)) | MIC (A fumigatus SI-1 - 1019 [5]; Aspergillus fumigatus, SI11019, read-out: Minimum Inhibitory Concentration (MIC)) | MIC (A fumigatus J - 1032; Aspergillus fumigatus, J1032, read-out: Minimum Inhibitory Concentration (MIC)) | MIC (A fumigatus L - 1034; Aspergillus fumigatus, L1034, read-out: Minimum Inhibitory Concentration (MIC)) | MIC (A fumigatus I - 1011; Aspergillus fumigatus, I1011, read-out: Minimum Inhibitory Concentration (MIC)) | MIC (A fumigatus K - 1033; Aspergillus fumigatus, K1033, read-out: Minimum Inhibitory Concentration (MIC)) | MIC (A fumigatus II - 1012; Aspergillus fumigatus, II1012, read-out: Minimum Inhibitory Concentration (MIC)) | MIC (A fumigatus 1008 [6]; Aspergillus fumigatus, read-out: Minimum Inhibitory Concentration (MIC)) | MIC (A fumigatus PGI - 1023; Aspergillus fumigatus, PGI1023, read-out: Minimum Inhibitory Concentration (MIC))
8 µg/mL: MIC (C albicans Y01.19; Candida albicans, read-out: Minimum Inhibitory Concentration (MIC))
4 µg/mL: MIC (H capsulatum; [7]) | MIC (C glabrata 90030; [7])
2 µg/mL: MIC (C parapsilosis 22019; [7])
32 µg/mL: MIC (C krusei 6258; [7])
64 µg/mL: MIC (Penicillium 1641; [7]) | MIC (Penicillium 191; [7])
